Patent US9241493B2, “Use of an enaminocarbonyl compound in combination with a biological control agent” (BAYER INTELLECTUAL PROPERTY GMBH, priority 2011, dated 2016)

Columns and labels:
Format in all cases: in vivo
[1] = tested on: Seeds of soybean (Glycine max); assay: Seed treatment, germination test soybean; settings: 0.3 g ai/kg seeds (head: g ai/kg seeds)
Method: Seed Treatment—Germination Test Soybean
Seeds of soybean (Glycine max) were treated by being mixed with the desired amount of active compound and spores and water. After drying, 25 seeds were sown into each pot filled with sandy loam.
After 4 days the level of activity expressed in % was determined. The level of activity was calculated on the basis of the number of soybean plants which have successfully germinated.

[2] = tested on: larvae of the Banded Cucumber Beetle (Diabrotica balteata); assay: Diabrotica balteata larvae test, soil application, corn; settings: 60 g ai/ha, mixed into soil, based on number of germinated corn plants
Method: Diabrotica balteata Test/Larvae—Soil Application
(§1) To produce a suitable preparation of active compound, 1 part by weight of active compound is mixed with the stated amount of solvent and emulsifier, and the concentrate is diluted with emulsifier-containing water to the desired concentration. To produce a suitable preparation of a spore suspension the spores are diluted with emulsifier-containing water to the desired concentration.
The preparation containing the active ingredient is thoroughly mixed into the soil. […] The treated soil is filled into pots and sown with 5 corn seeds per pot. 3 days after sowing larvae of the Banded Cucumber Beetle (Diabrotica balteata) are placed in the soil.
After the desired period of time the level of activity expressed in % is determined. The level of activity is calculated on the basis of the number of corn plants which have successfully germinated. The efficacy values determined thus are recalculated using the Colby-formula.

[3] = tested on: Green peach aphid (Myzus persicae); assay: Myzus persicae test, spray application on Chinese cabbage leaf discs; settings: foliar, 24 h, 20 g ai/ha, 1 d, read-out: Mortality in % after 1 d
Method: Myzus persicae—Test (Spray Application)
(§2) To produce a suitable preparation of active compound, 1 part by weight of active compound is mixed with the stated amount of solvent and emulsifier, and the concentrate is diluted with emulsifier-containing water to the desired concentration. To produce a suitable preparation of a biological suspension the cells or spores are diluted with emulsifier-containing water to the desired concentration.
Chinese cabbage (Brassica pekinesis) leaf—discs infected with all instars of the green peach aphid (Myzus persicae), are sprayed with a preparation of the active ingredient at the desired concentration.
After the specified period of time mortality in % is determined. 100% means that all aphids have been killed; 0% means that none of the aphids have been killed.

[4] = tested on: mustard beetle larvae (Phaedon cochleariae); assay: Phaedon cochleariae larvae test, spray application on Chinese cabbage leaf discs; settings: foliar, 144 h, 100 g ai/ha, 6 d, read-out: Mortality in % after 6 d
Method: Phaedon cochleariae Larvae—Spray Application
as §2, with “cells, viruses” for “cells”
Chinese cabbage (Brassica pekinesis) leaf—discs are sprayed with a preparation of the active ingredient of the desired concentration. Once dry, the leaf discs are infested with mustard beetle larvae (Phaedon cochleariae).
(§3) After the specified period of time, mortality in % is determined. 100% means that all the beetle larvae have been killed; 0% means that none of the beetle larvae have been killed. The mortality values thus determined are recalculated using the Colby-formula.

[5] = tested on: larvae of the mustard beetle (Phaedon cochleariae); assay: Phaedon cochleariae larvae test, foliar application on cabbage leaves; settings: 48 h, 60 g ai/ha, foliar spray, 2 d, read-out: Mortality in % after 2 d
Method: Phaedon cochleariae Larvae—Foliar Application
as §1
Cabbage leaves (Brassica oleracea) are treated by being sprayed with the preparation of the active compound of the desired concentration and are infested with larvae of the mustard beetle (Phaedon cochleariae) as long as the leaves are still moist.
as §3

[6] = tested on: Green peach aphid (Myzus persicae); assay: Myzus persicae test, foliar application on infested cabbage leaves; settings: 144 h, 100 g ai/ha, foliar spray, 6 d, read-out: Mortality in % after 6 d
Method: Myzus persicae—Foliar Application
as §2
Cabbage leaves (Brassica oleracea) which are heavily infested by the Green peach aphid (Myzus persicae) are treated by being sprayed with the preparation of the active compound at the desired concentration.
After the specified period of time, mortality in % is determined. 100% means that all the aphids have been killed; 0% means that none of the aphids have been killed. The mortality values thus determined are recalculated using the Colby-formula.

O=C1C=C(N(Cc2ccc(Cl)nc2)CC(F)F)CO1 [Compound (I-3), 4-{[(6-Chloropyrid-3-yl)methyl](2,2-difluorethyl)amino}furan-2(5H)-one]
Germination in % related to untreated control, evaluation after 4 d [1]: 72.73% | Efficacy in % after 5 d [2]: 75% | mortality at 20 g/ha [3]: 0% | mortality at 100 g/ha [4]: 0% | mortality at 60 g/ha [5]: 20% | mortality at 100 g/ha [6]: 90%
